Measured values from patent publication US7943584B2, “Medicinal composition containing diabetes remedy” (Sankyo Company, Limited, priority 2004, dated 2011).

Biological target: T1, human pancreatic α-amylase (HPA) (Homo sapiens, UniProt P04746)
T1 construct: purchased International Reagents Co., Ltd. Calibzyme AMY
T1 sequence (P04746 16-511): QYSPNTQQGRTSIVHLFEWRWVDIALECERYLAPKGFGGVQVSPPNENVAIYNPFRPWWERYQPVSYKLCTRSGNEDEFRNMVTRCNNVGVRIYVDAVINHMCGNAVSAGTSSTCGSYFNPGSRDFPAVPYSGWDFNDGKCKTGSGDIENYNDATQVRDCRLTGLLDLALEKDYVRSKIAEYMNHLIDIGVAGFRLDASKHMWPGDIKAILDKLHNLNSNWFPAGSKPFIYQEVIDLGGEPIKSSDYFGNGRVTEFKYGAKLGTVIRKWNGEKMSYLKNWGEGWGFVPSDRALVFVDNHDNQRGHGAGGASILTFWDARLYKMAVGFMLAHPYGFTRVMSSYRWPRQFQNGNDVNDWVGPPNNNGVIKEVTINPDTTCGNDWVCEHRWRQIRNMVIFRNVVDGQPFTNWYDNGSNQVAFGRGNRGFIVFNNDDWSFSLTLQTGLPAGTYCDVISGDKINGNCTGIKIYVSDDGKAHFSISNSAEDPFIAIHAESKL
Experiment: α-Amylase inhibitory action (Blue Starch, Neo Amylase Test)
Format: biochemical
Conditions: final concentration required for 50% inhibition of HPA solution, 37° C.

- IC50: 848 nM
SMILES: COC[C@H]1O[C@@H](O[C@H]2[C@H](O)[C@@H](O)C(O[C@H]3[C@H](O)CN[C@@H]3CO)O[C@@H]2CO)[C@H](O)[C@@H](O)[C@@H]1O (stereo partly drawn) [Reference Example 8, (2R,3R,4R)-4-Hydroxy-2-hydroxymethylpyrrolidin-3-yl 4-O-(6-methoxy-6-deoxy-β-D-glucopyranosyl)-D-glucopyranoside]
